Results taken from PubChem BioAssay AID1963421 (Molecular Pharmacology Branch, DTP, NCI, 2024).
Several values for one entry are separate records, joined by “and”; a condition that tells them apart may be missing. Identical values can stand only once.

System: 519858-162-T-J1-PDC complex spheroid growth, % test/control
Assay: Anticancer human tumor 519858-162-T-J1-PDC patient-derived colon adenocarcinoma cell line growth inhibition [Asc]
Conditions: for viability, T/C: stronger effect = lower value
Description: Multicellular complex tumor spheroid response to apoptosis pathway targeting inhibitors Alrizomadlin, Pelcitoclax, and Dasminapant in combination with a variety of drugs and investigational agents in selected tumor cell lines
The MDM2 inhibitor alrizomadlin, the Bcl-2/Bcl-xL inhibitor pelcitoclax, and the IAPs inhibitor dasminapant were evaluated both individually and in combination with standard of care and investigational anticancer small molecules within a complex spheroid model of solid tumors. . Complex spheroids include a stromal component modeled by human endothelial cells (HUVEC) and fibroblasts modeled by human mesenchymal stem cells (MSCs). The concentration ranges selected for each drug and investigational agent were based upon clinically achievable concentrations if the clinical Cmax of the agent was known.
Compounds. The drugs and investigational agents: alrizomadlin (APG-115; NSC831270), pelcitoclax (APG-1252; NSC835773), dasminapant (APG-1387;NSC834197), TAK-243 (NSC785004), copanlisib (NSC809693), olaparib (NSC753686), talazoparib (NSC767125), cobimetinib (NSC 768068), eltanexor (KPT-8602, NSC 794443), abemaciclib (NSC 768073), sotorasib (NSC818433), adagrasib (NSC 831453), MRTX-1133 (NSC 836407), Iadademestat (ORY1001, NSC 806812), and RMC-4630 (NSC839698), were obtained from the NCI Developmental Therapeutics Program Chemical Repository. The FDA-approved anticancer drug set is available from the Developmental Therapeutics Program at https://dtp.cancer.gov/organization/dscb/obtaining/available plates.htm. […] The stock solutions were prepared in dimethyl sulfoxide (DMSO, Sigma-Aldrich, St. Louis, MO, cat. D2650) at 800-fold the tested concentration and stored at -70 degrees C prior to their use. All drugs and investigational agents were tested over a range starting from a high concentration at or near the clinical Cmax and decreasing in half-log increments. If the clinical Cmax for an agent had not been determined, the highest concentration tested was 10 microM.
The patient-derived cancer (PDC) cell lines include five colon adenocarcinomas: 186277-243-T-J2-PDC, 616215-338-R-J1-PDC, 439559-082-T-J2-PDC, 463943-066-T-J2-PDC, and 519858-162-T-J1-PDC; three pancreatic carcinomas: 323965-272-R-J2-PDC, 521955-158-R6-J3-PDC, and 521955-158-R2-J5-PDC; two uterine sarcomas: 327498-152-R-J2-PDC and 993429-296-R-J1-PDC; two rhabdomyosarcomas: 755483-174-R-J1-PDC and 772245-204-R-J1-PDC; two soft tissue sarcomas: 126254-015-R-J1-PDC and 494315-158-R-J1-PDC; two malignant fibrous histiocytomas: 317291-083-R-J1-PDC and 596521-263-R-J1-PDC; two breast carcinomas: 171881-019-R-J1-PDC and 885512-296-R-J2-PDC; and one ovarian carcinoma: 6556581-035-R-J-PDC were obtained from the NCI PDMR, (https://pdmr.cancer.gov). The established cell lines HSSY-2 synovial sarcoma (RRID:CVCL 8719), SYO-1 synovial sarcoma (RRID:CVCL_7146), MPNST malignant peripheral neural sheath tumor were obtained from the Sloan Kettering Institute. The following established cell lines were purchased from the American Type Culture Collection (ATCC, Manassas, VA), Sor the received from the NCI repository:, PANC-1 pancreatic carcinoma (CRL-1469, RRID:CVCL_0480), OVCAR-5 ovarian carcinoma (RRID:CVCL_1628), OVCAR-8 ovarian carcinoma (RRID:CVCL_1629), , MCF-7 breast carcinoma (CRL-12584, RRID:CVCL_0031), MDA-MB-231 breast carcinoma (CRL-12532, RRID:CVCL_0062), NCI-H1876 small cell lung carcinoma (CRL-5902, RRID:CVCL_1503), NCI-H510A small cell lung carcinoma (HTB-184, RRID:CVCL_1565), NCI-H1417 (CRL-5869, RRID:CVCL_1469), and NCI-H196 small cell lung carcinoma (CRL-5823, RRID:CVCL_1509). Dr. Peter Houghton (Greehey Children's Cancer Research Institute, University of Texas Health Science Center, San Antonio, TX) provided Rh-18 rhabdomyosarcoma (RRID:CVCL_1659). Pooled donor human umbilical vein endothelial cells (HUVEC, Lonza, cat. CC-2519) and human mesenchymal stem cells (hMSC, Lonza, cat. PT-2501) were purchased from Lonza (Walkersville, MD).
Cell Culture. […]

[1] = compound alone, run of 11/07/2022
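Also: seven day drug exposure begun three days after spheroid seeding.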
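For viability, T/C in this document: 100% = DMSO vehicle wells and lower values mean less viable spheroid.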

C#Cc1c(F)ccc2cc(O)cc(-c3ncc4c(N5CC6CCC(C5)N6)nc(OCC56CCCN5CC(F)C6)nc4c3F)c12 (stereo not drawn)
viability, T/C (compound 0.0316 µM): 89.4% and 98.1% and 81.9% | viability, T/C (compound 0.1 µM): 126% and 101% and 93.3% | viability, T/C (compound 0.316 µM): 102% and 92.8% and 90.6% | viability, T/C (compound 1 µM): 88.3% and 89.3% and 83.3% | viability, T/C (compound 3.16 µM): 86.9% and 78.3% and 64.9% | viability, T/C (compound 10 µM): 68.7% and 66.2% and 72.1% | IC50 (curve of compound): > 10000 nM

C=C(F)C(=O)N1CCN(c2nc(OCC3CCCN3C)nc3c2CCN(c2cccc4cccc(Cl)c24)C3)CC1CC#N (stereo not drawn)
viability, T/C (compound 0.0316 µM): 95.4% and 95.7% and 94% | viability, T/C (compound 0.1 µM): 109% and 79.9% and 106% | viability, T/C (compound 0.316 µM): 97% and 96.7% and 84.9% | viability, T/C (compound 1 µM): 89.8% and 92.8% and 78.1% | viability, T/C (compound 3.16 µM): 94.5% and 80.9% and 93.3% | viability, T/C (compound 10 µM): 97.4% and 72.3% and 43% | IC50 (curve of compound): > 10000 nM and 8440 nM

C=CC(=O)N1CCN(c2nc(=O)n(-c3c(C)ccnc3C(C)C)c3nc(-c4c(O)cccc4F)c(F)cc23)C(C)C1 (stereo not drawn)
viability, T/C (compound 0.0316 µM): 97.6% and 65.2% and 101% | viability, T/C (compound 0.1 µM): 87.3% and 70.7% and 109% | viability, T/C (compound 0.316 µM): 105% and 85.9% and 110% | viability, T/C (compound 1 µM): 87.3% and 95.3% and 117% | viability, T/C (compound 3.16 µM): 82.4% and 70.7% and 96.5% | viability, T/C (compound 10 µM): 93.6% and 72% and 104% | IC50 (curve of compound): > 10000 nM

CCN1C(C(=O)NC23CCC(C(=O)O)(CC2)CC3)C(c2cccc(Cl)c2F)C2(C(=O)Nc3cc(Cl)ccc32)C12CCCCC2 (stereo not drawn)
IC50 [1]: > 3000 nM | IC50 (curve of compound): > 3000 nM

CCN1CCN(Cc2ccc(Nc3ncc(F)c(-c4cc(F)c5nc(C)n(C(C)C)c5c4)n3)nc2)CC1
viability, T/C (compound 0.00316 µM): 112% and 91.6% and 83.9% | viability, T/C (compound 0.01 µM): 104% and 98.3% and 105% | viability, T/C (compound 0.0316 µM): 91% and 73.6% and 115% | viability, T/C (compound 0.1 µM): 87.1% and 75.9% and 100% | viability, T/C (compound 0.316 µM): 73.9% and 61.4% and 72.9% | viability, T/C (compound 1 µM): 62% and 46.7% and 81.3% | IC50 (curve of compound): > 1000 nM and 793 nM

CNC(C)C(=O)NC1CN(S(=O)(=O)c2cccc(S(=O)(=O)N3CCC4CCC(C(=O)NC(c5ccccc5)c5ccccc5)N4C(=O)C(NC(=O)C(C)NC)C3)c2)CCC2CCC(C(=O)NC(c3ccccc3)c3ccccc3)N2C1=O (stereo not drawn)
IC50 (compound alone, run of 11/15/2022): > 1000 nM | IC50 (curve of compound): > 1000 nM

COc1c(OCCCN2CCOCC2)ccc2c3n(c(=NC(=O)c4cnc(N)nc4)nc12)CCN3
viability, T/C (compound 0.00316 µM): 88.7% and 89.2% and 87.3% | viability, T/C (compound 0.01 µM): 106% and 82.6% and 84% | viability, T/C (compound 0.0316 µM): 91.1% and 79.6% and 45.8% | viability, T/C (compound 0.1 µM): 62.9% and 81.2% and 48.9% | viability, T/C (compound 0.316 µM): 50.7% and 65.9% and 55.2% | viability, T/C (compound 1 µM): 29.3% and 51.5% and 45.5%

Cc1c(S(C)(=O)=O)c(-c2cc(F)cc(N3CCN(c4ccc(NS(=O)(=O)c5ccc(NC(CCN6CCC(C(=O)OCCCP(=O)(O)O)CC6)CSc6ccccc6)c(S(=O)(=O)C(F)(F)F)c5)cc4)CC3)c2)c(-c2ccc(Cl)cc2)n1C(C)C (stereo not drawn)
viability, T/C (compound 0.0316 µM): 89.8% [middle of 7 runs] | viability, T/C (compound 1 µM): 95.1% [middle of 7 runs] | IC50 [1]: > 10000 nM

Cc1nc(N2CCC3(CC2)COC(C)C3N)c(CO)nc1Sc1ccnc(N)c1Cl (stereo not drawn)
viability, T/C (compound 0.00949 µM): 94.3% and 68.7% and 97.6% | viability, T/C (compound 0.03 µM): 86.9% and 76% and 58.9% | viability, T/C (compound 0.0949 µM): 76.2% and 77.3% and 83.6% | viability, T/C (compound 0.3 µM): 76.3% and 77.2% and 97.4% | viability, T/C (compound 0.949 µM): 76.3% and 78.3% and 53% | viability, T/C (compound 3 µM): 70.9% and 57.7% and 49.1% | IC50 (curve of compound): > 3000 nM and 2290 nM

Cn1ncnc1[C@H]1c2n[nH]c(=O)c3cc(F)cc(c23)N[C@@H]1c1ccc(F)cc1
viability, T/C (compound 0.000316 µM): 87.9% and 91% and 92% | viability, T/C (compound 0.001 µM): 97.2% and 98.2% and 79.8% | viability, T/C (compound 0.00316 µM): 99.3% and 92.3% and 101% | viability, T/C (compound 0.01 µM): 82.6% and 96.8% and 94.9% | viability, T/C (compound 0.0316 µM): 90.9% and 81.5% and 68.7% | viability, T/C (compound 0.1 µM): 96.8% and 78.6% and 84.5% | IC50 (curve of compound): > 100 nM

NC(=O)C(=Cn1cnc(-c2cc(C(F)(F)F)cc(C(F)(F)F)c2)n1)c1cncnc1
viability, T/C (compound 0.000949 µM): 106% and 86.6% and 101% | viability, T/C (compound 0.003 µM): 105% and 110% and 63.5% | viability, T/C (compound 0.00949 µM): 101% and 62.7% and 81.4% | viability, T/C (compound 0.03 µM): 87.2% and 69% and 97.2% | viability, T/C (compound 0.0949 µM): 89.4% and 72.2% and 65.5% | viability, T/C (compound 0.3 µM): 72.1% and 90.1% and 82.9% | IC50 (curve of compound): > 300 nM

NC1CCC(NC2CC2c2ccccc2)CC1 (stereo not drawn)
viability, T/C (compound 0.000316 µM): 104% and 97.4% and 118% | viability, T/C (compound 0.001 µM): 95.6% and 118% and 95.5% | viability, T/C (compound 0.00316 µM): 86.1% and 99% and 95.9% | viability, T/C (compound 0.01 µM): 99.9% and 127% and 86.2% | viability, T/C (compound 0.0316 µM): 129% and 85.6% and 94.6% | viability, T/C (compound 0.1 µM): 113% and 111% and 102% | IC50 (curve of compound): > 100 nM

O=C(c1cc(Cc2n[nH]c(=O)c3ccccc23)ccc1F)N1CCN(C(=O)C2CC2)CC1
viability, T/C (compound 0.0316 µM): 80.7% and 96.9% and 79.1% | viability, T/C (compound 0.1 µM): 93.5% and 79.1% and 92.7% | viability, T/C (compound 0.316 µM): 80.5% and 81.3% and 77.4% | viability, T/C (compound 1 µM): 96.3% and 112% and 117% | viability, T/C (compound 3.16 µM): 97.3% and 89.7% and 106% | viability, T/C (compound 10 µM): 94.3% and 70.3% and 86.1% | IC50 (curve of compound): > 10000 nM

O=C(c1ccc(F)c(F)c1Nc1ccc(I)cc1F)N1CC(O)([C@@H]2CCCCN2)C1
viability, T/C (compound 0.00316 µM): 85.1% and 106% and 91% | viability, T/C (compound 0.01 µM): 92.7% and 96% and 89.8% | viability, T/C (compound 0.0316 µM): 61.4% and 68.8% and 91.4% | viability, T/C (compound 0.1 µM): 71.8% and 85.1% and 80.8% | viability, T/C (compound 0.316 µM): 38.6% and 49.1% and 46.9% | viability, T/C (compound 1 µM): 18.4% and 19.7% and 19.3% | IC50 (curve of compound): 202 nM and 325 nM and 284 nM
